Calls of active or inactive are those of the source.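 The calls were made as follows: active = caspase luminescence falls with dose and the half-maximal concentration AC50 from the fitted curve is at or below a set limit; inconclusive = flat fit at 30 to 70% signal loss, or invalid fit; inactive = AC50 above the limit, or signal rises instead.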

This experiment relates to INS-1E cytokine-induced caspase-3/7, Caspase-Glo luminescence, 48 h. Briefly: suppression of cytokine-driven beta-cell apoptosis – INS-1E rat cells, luminescence, orthogonal assay for beta-cell apoptosis protection project, dose response (AID 463206).
With `c1nc(NCc2ccc3c(c2)OCO3)c2cc(-c3ccc4c(c3)OCCO4)ccc2n1`, the AC50 (commonly the concentration at which the activity in the assay is half-maximal) was > 26 µM (inactive).

Take `CC(=O)Nc1ccc(NC(=O)CN(c2cccc([N+](=O)[O-])c2)S(C)(=O)=O)cc1`: the AC50 is > 26 µM (inactive). In the case of `CNc1ccc2oc(C[C@H]3O[C@@]4(CC[C@H]3C)O[C@H]([C@H](C)C(=O)c3ccc[nH]3)[C@H](C)C[C@H]4C)nc2c1C(=O)O` it was > 26 µM (inactive); in that of `CN1/C(=C\C(=S)NC(=O)c2cccc(Br)c2)C(C)(C)c2ccccc21`, > 26 µM (inactive); in that of `CC(=O)Oc1c(Cl)cc(N(C(C)=O)S(=O)(=O)c2ccccc2)c2ccccc12`, > 26 µM (inactive). In the case of `COC(=O)c1cc(=O)n(CCc2ccccc2F)c(=Nc2ccc(F)c(Cl)c2)s1` it was > 26 µM (inactive); in that of `O=c1[nH]c(=O)n(-c2ccc(F)cc2)c2c1C(C(F)(F)F)(C(F)(F)F)N=C(c1ccc(F)cc1)N2`, > 26 µM (inactive); in that of `O=C(C1CCC1)N1CCc2cc(S(=O)(=O)Nc3ccc4c(c3)OCCO4)ccc21`, > 26 µM (inactive). As to `CC(C)C(=O)NC(c1ccccc1)c1cc([N+](=O)[O-])c2cccnc2c1O` (centres undefined), the AC50 was > 26 µM (inactive).

Regarding `OCc1ccc(O)c2ncccc12`, the AC50 was > 26 µM (inactive). `CCC(=O)N1c2ccc(S(=O)(=O)N3CCN(c4ccc([N+](=O)[O-])cc4)CC3)cc2CC1C` (centres undefined): the AC50 was > 26 µM (inactive).

As for `Cc1ccc(C(=O)OCn2ncc(Cl)c(Cl)c2=O)cc1`, the AC50 is > 26 µM (inactive). In the case of `CCCCNc1c(-c2ccc(-c3cccc(Cl)c3)cc2)nc2ccccn12` it was > 26 µM (inactive); in that of `O=C(c1ccc(Cl)cc1)C(CN1CCCCC1)c1ccccc1` (centres undefined), > 26 µM (inactive); in that of `O=c1c2c(nc3c(-c4ccc(Cl)cc4)c[nH]n13)CCCC2`, > 26 µM (inactive). As to `CCc1ccc(S(=O)(=O)Nc2ccc(O)c3ccccc23)cc1`, the AC50 is > 26 µM (inactive). For `C/C(=N\NC(=O)c1cc(Br)ccc1O)c1ccccn1` the value was > 26 µM (inactive); for `CC(=O)C1=C(c2ccc(Br)cc2)C(=O)c2ccccc2C1=O`, > 26 µM (inactive). For `O=C(NC(Nc1nc2ccc([N+](=O)[O-])cc2s1)(C(F)(F)F)C(F)(F)F)c1ccccc1` the value was > 26 µM (inactive); for `COc1ccc(-c2ccnc(SCC(=O)N3CCN(c4ccccc4)CC3)n2)cc1`, > 26 µM (inactive); for `c1ccc2c(CN3CCCCCC3)c[nH]c2c1`, 4.24 µM. In the case of `C(#Cc1ccccc1)C[N+]1(CC#Cc2cccc3ccccc23)CCCC1` it was > 26 µM (inactive); in that of `CC(C)(C)Sc1ccc2nc3c(n2c1)CCCC3`, > 26 µM (inactive); in that of `Cc1ccc(-c2nc(NC(=O)c3nn(C)cc3[N+](=O)[O-])sc2C)cc1`, > 26 µM (inactive). With `CC(C)N=c1cc2n(-c3ccc(Cl)cc3)c3ccccc3nc-2cc1Nc1ccc(Cl)cc1`, the AC50 was > 26 µM (inactive). Regarding `Fc1ccc(-c2cc(-c3nnc4n3CCCCC4)c3ccccc3n2)cc1`, the AC50 is > 26 µM (inactive). For `OC(CNCCC1C=Nc2ccccc21)Cn1c2ccc(Cl)cc2c2cc(Cl)ccc21` (centres undefined) the value was > 26 µM (inactive).

Turning to `CCCCCCCCCCOC(=O)Cn1c(COc2ccc(C)cc2)[n+](C)c2ccccc21`, the AC50 was > 26 µM (inactive). Consider `Cc1ccc(C)c(NC(=O)c2ccccc2NS(=O)(=O)c2cc([N+](=O)[O-])ccc2C)c1`, for which the AC50 is > 26 µM (inactive). For `CCN(CC)CCn1c2ccccc2c2cnc(N)c(C#N)c21` the value was 5.57 µM. `CN(Cc1c(F)cccc1Cl)C(=O)c1cc2ccccc2o1`: the AC50 is > 26 µM (inactive). For the compound `COc1ccc(C(NC(=O)C(C)C)c2ccc3cccnc3c2O)cc1` (centres undefined), the AC50 is > 26 µM (inactive). In the case of `O=C1C=C(Nc2ccc(O)cc2)C(=O)c2ccccc21` it was > 26 µM (inactive); in that of `N#CCSc1nc2ccccc2c2nc3ccccc3n12`, > 26 µM (inactive); in that of `Cc1ccn2c(Nc3ccccc3)c(-c3ccccn3)nc2c1`, > 26 µM (inactive). For `COc1ccc(CCNc2ncnc3sc(C)cc23)cc1OC` the value was > 26 µM (inactive); for `Cc1sc2ncnc(NCc3cccs3)c2c1C`, > 26 µM (inactive); for `C/C(=N\Nc1ccc2nncn2n1)c1ccccn1`, > 26 µM (inactive).

For the compound `CCN(CC)S(=O)(=O)c1cccc(NC(=O)c2cc(-c3cccs3)nn2-c2ccccc2)c1`, the AC50 is > 26 µM (inactive).

Turning to `Cc1occc1C(=O)N/N=C/c1ccc2c(c1)OCO2`, the AC50 was > 26 µM (inactive).

As for `CCC[N+]1(CC#CCC(c2ccccc2)c2ccccc2)CCCCC1`, the AC50 was > 26 µM (inactive).

`CCn1c(Cl)c(C=O)s/c1=N\S(=O)(=O)c1ccccc1`: the AC50 is > 26 µM (inactive).

Regarding `COc1ccc(CNC[C@@H](CCCCN(C)Cc2ccc(OC)cc2)N2C[C@H](c3ccccc3)N(CCc3ccc(Cl)c(Cl)c3)C(=O)C2=O)cc1`, the AC50 is > 26 µM (inactive).

As to `N/C(=N\OC(=O)c1ccc(Cl)cc1Cl)c1ccccn1`, the AC50 is > 26 µM (inactive).

As for `Cc1ccc(-c2nn(-c3ccccc3)cc2/C=C/C(=O)Nc2cccc(S(N)(=O)=O)c2)cc1`, the AC50 is > 26 µM (inactive).

For the compound `O=S1(=O)C=C(Sc2nnc(-c3ccccc3)o2)c2ccccc21`, the AC50 is > 26 µM (inactive). Consider `Cc1ccc(C[n+]2cccc(-c3ccccc3)c2)c(C)c1`, for which the AC50 is > 26 µM (inactive). `COc1ccc(C2/C=C\CN(C(=O)c3ccccc3)[C@H](Cc3ccccc3)C(=O)N2Cc2ccc(F)cc2)cc1` (some centres undefined): the AC50 is > 26 µM (inactive). `Cc1[nH]n(-c2ccccc2)c(=O)c1/C=N/NC(=O)COc1ccccc1[N+](=O)[O-]`: the AC50 was > 26 µM (inactive). Regarding `CN1CCN(c2ccc(CNS(=O)(=O)Cc3cccc(C(F)(F)F)c3)cc2)CC1`, the AC50 was > 26 µM (inactive). In the case of `Cc1ccccc1OCCn1c(C)nc2ccccc21` it was > 26 µM (inactive); in that of `O=C(Nc1nc(-c2ccccn2)cs1)c1ccc(F)c(S(=O)(=O)N2CCOCC2)c1`, > 26 µM (inactive); in that of `CN1CCN(c2ccc([N+](=O)[O-])c3no[n+]([O-])c23)CC1`, > 26 µM (inactive).

For `O=[N+]([O-])c1ccc(-n2cnc3ccccc32)c([N+](=O)[O-])c1`, the AC50 was > 12 µM (inactive).

Turning to `Cc1cc(C(C)(C)C)cc(C)c1C[n+]1ccc2ccccc2c1`, the AC50 is > 26 µM (inactive).

As to `CC1(C)CC(N2CCN(c3ccccc3)CC2)=CC(=[N+]2CCCC2)C1`, the AC50 was > 26 µM (inactive). Take `O=S(=O)(c1ccc2nc(Nc3ccccc3)ccc2c1)N1CCCCC1`: the AC50 was > 26 µM (inactive). For `Cc1cc(N2CCC(C)CC2)nc(NCc2ccccc2)n1` the value was 19.6 µM; for `Cc1ccc2c(c1)N(C)/C(=C/c1cccc[n+]1CCO)S2`, > 26 µM (inactive); for `CC1=NOC(=O)/C1=C/c1ccc(-c2ccc(Cl)cc2)o1`, > 26 µM (inactive). Regarding `Cc1cc(OCc2nc(-c3ccc(NC(=O)c4cccnc4)cc3)no2)ccc1Cl`, the AC50 is > 26 µM (inactive). For `COC(=O)C1=C(C)N(Cc2ccccc2)C(=NCc2cccc(Cl)c2)N[C@H]1c1cccc(F)c1` the value was > 26 µM (inactive).

With `CN(C)CCOc1ccc(-c2c(-c3ccccc3)sc3ccccc23)cc1`, the AC50 is > 26 µM (inactive). Turning to `O=[N+]([O-])c1c(Nc2ccc(O)cc2)cc(Cl)c2nonc12`, the AC50 was > 26 µM (inactive).

On to `CCn1c(=O)c([N+](=O)[O-])c(Cl)c2ccccc21`, for which the AC50 was > 26 µM (inactive). For `Cc1cccc(/C=N/NC(=O)c2c(-c3ccccc3)noc2C)c1O` the value was > 26 µM (inactive). In the case of `On1onc2c3cc(-c4ccccc4)nc3ccc21` it was > 26 µM (inactive); in that of `N#CC(C#N)=NNc1ccc(-n2ccc(C(F)(F)F)n2)cc1`, > 26 µM (inactive).

With `O=C(c1cnc(N2CCN(c3ccccn3)CC2)c2ccccc12)N1CCN(c2cccc(Cl)c2)CC1`, the AC50 is > 26 µM (inactive).

Regarding `Cc1ccc(O)c(CNc2cccc3cccnc23)c1`, the AC50 was > 12 µM (inactive). Take `O=C(Nc1nc(-c2ccccn2)cs1)c1ccc([N+](=O)[O-])o1`: the AC50 is > 26 µM (inactive).

Take `COc1ccc(/C=N/NC(=O)c2nc(-c3ccccc3)n(-c3ccccc3)n2)c(O)c1`: the AC50 is > 26 µM (inactive). For `CCCCC(=O)NC(c1ccccc1OC)c1ccc2cccnc2c1O` (centres undefined) the value was > 26 µM (inactive); for `Cc1cc(C)c(S(=O)(=O)/N=C2\C=C(Nc3ccc(C(=O)O)cc3)C(=O)c3ccccc32)c(C)c1`, > 26 µM (inactive). Consider `O=C(Oc1cccc2cccnc12)c1cccc(N2C(=O)C3C4CCC(C4)C3C2=O)c1` (centres undefined), for which the AC50 was > 26 µM (inactive).

For the compound `Cc1[nH]c2c(ccc3ccccc32)c1C1C(CCN)C1(C)C` (centres undefined), the AC50 was > 26 µM (inactive). For `C=CCc1c(C)nc(C)nc1N/N=C/c1ccc(N(C)C)cc1` the value was > 26 µM (inactive). For `CC(C)c1ccc(COc2ccc(C(=O)N3CCOCC3)cc2)cc1` the value was > 26 µM (inactive). As to `C=C(C=O)C[C@@H]1C[C@H](O)C2OC3C[C@]4(C)OC5/C=C\CC6OC7C(CC=CCC6OC5CCCC4OC3CC2O1)OC1CC2OC3CC(=O)OC3C[C@@H](C)C[C@@]2(C)OC1C[C@@H]7C` (some centres undefined), the AC50 was > 26 µM (inactive). For `O=C1c2ccc3c4c(ccc(c24)C(=O)N1c1cccc(O)c1)C(=O)N(c1cccc(O)c1)C3=O` the value was > 26 µM (inactive). As for `COc1ccccc1N1CCN(Cc2cc(Br)c(O)c3ncccc23)CC1`, the AC50 is > 12 µM (inactive).

Take `COCCCNC(=O)Cn1nnc(-c2ccc(NC(=O)c3cccnc3)cc2)n1`: the AC50 is > 26 µM (inactive). Regarding `Cc1cc[n+](C(C)C(=O)c2ccc(-c3ccccc3)cc2)cc1` (centres undefined), the AC50 was > 26 µM (inactive). As to `CCN1/C(=C/c2ccc3cc(C)ccc3[n+]2CC)Sc2ccc3sccc3c21`, the AC50 was > 26 µM (inactive).
